In article doi:10.1101/2024.08.19.608619, “Discovery of potent SARS-CoV-2 nsp3 macrodomain inhibitors uncovers lack of translation to cellular antiviral response” (bioRxiv, 2024):
Like-named read-outs stand apart in the source and are kept apart here.

Legend:
Test in all cases: biochemical
Design in all cases: In vitro kinase panel profiling, per cent remaining kinase activity at 10 uM
MSK2(h) = target: T1, MSK2(h) (Homo sapiens, UniProt O75676); conditions: atp_concentration=45, read-out: % of control remaining
T1 construct: gene RPS6KA4
T1 sequence (O75676 whole entry): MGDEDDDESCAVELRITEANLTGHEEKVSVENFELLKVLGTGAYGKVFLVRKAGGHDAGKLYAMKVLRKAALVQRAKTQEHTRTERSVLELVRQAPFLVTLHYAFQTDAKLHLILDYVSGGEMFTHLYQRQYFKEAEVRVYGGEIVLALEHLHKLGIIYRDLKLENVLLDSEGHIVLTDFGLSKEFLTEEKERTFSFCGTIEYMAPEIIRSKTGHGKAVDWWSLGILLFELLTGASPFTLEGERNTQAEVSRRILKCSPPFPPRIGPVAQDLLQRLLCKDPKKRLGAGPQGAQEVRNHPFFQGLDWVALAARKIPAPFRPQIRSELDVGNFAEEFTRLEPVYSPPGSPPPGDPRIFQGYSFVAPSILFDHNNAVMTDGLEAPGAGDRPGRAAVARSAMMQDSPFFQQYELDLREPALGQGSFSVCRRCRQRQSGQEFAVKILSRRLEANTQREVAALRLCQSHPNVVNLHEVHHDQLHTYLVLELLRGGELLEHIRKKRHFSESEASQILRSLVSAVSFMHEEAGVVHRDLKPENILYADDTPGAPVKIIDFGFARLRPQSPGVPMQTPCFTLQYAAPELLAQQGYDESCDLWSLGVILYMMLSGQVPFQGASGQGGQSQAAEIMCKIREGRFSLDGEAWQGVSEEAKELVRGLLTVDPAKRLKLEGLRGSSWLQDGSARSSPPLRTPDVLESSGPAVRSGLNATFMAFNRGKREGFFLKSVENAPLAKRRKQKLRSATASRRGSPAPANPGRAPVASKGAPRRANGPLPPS
Text: (§1) We derisk potential for off-target activity by profiling the compound in a CEREP panel, a standard secondary pharmacology assessment, as well as a kinase panel to derisk a potential hinge-binding motif in our leads, and a PARP panel to derisk activity against human […]. Reassuringly, the compounds are selective, with the only off-targets being moderate human CHRM2 and KOR receptors activity associated with ASAP-0011198.

IGF-1R(h) = target: T2, IGF-1R(h) (Homo sapiens, UniProt P08069); conditions: atp_concentration=200, read-out: % of control remaining
T2 construct: gene IGF1R
T2 sequence (P08069 whole entry): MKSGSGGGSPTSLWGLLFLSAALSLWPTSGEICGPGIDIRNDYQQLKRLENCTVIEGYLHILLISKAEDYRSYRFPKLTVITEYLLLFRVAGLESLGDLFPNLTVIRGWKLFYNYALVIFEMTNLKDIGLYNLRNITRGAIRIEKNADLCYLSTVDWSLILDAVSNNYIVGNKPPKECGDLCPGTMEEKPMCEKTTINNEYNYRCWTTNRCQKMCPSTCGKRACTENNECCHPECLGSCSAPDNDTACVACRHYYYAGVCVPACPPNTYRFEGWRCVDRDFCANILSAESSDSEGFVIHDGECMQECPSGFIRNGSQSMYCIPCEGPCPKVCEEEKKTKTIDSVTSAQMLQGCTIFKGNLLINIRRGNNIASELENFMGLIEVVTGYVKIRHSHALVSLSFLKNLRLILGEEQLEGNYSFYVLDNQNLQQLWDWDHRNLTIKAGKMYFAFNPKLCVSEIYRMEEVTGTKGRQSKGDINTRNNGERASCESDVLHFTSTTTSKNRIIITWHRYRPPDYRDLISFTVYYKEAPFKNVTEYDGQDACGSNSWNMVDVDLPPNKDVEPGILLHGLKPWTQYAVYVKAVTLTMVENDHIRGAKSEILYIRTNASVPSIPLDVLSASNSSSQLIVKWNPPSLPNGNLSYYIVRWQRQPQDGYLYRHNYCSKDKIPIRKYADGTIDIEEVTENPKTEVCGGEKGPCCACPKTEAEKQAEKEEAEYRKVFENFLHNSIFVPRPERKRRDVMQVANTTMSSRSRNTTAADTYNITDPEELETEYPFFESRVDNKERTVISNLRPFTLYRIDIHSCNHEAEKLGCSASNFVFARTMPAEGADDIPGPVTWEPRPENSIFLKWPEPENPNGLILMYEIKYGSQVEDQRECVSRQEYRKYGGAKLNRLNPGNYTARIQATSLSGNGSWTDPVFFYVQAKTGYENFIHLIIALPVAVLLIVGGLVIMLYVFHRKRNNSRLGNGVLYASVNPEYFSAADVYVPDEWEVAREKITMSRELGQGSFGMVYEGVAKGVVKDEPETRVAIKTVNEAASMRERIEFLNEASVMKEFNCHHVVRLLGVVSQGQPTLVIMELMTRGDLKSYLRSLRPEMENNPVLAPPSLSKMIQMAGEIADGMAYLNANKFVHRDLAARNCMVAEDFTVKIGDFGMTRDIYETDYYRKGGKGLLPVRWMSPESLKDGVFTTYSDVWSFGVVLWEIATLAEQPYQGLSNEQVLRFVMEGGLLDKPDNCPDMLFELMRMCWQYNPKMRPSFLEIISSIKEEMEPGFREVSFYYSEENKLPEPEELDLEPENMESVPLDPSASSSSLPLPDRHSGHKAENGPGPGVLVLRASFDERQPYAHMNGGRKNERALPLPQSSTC
Text: as §1

Aurora-A(h) = target: T3, Aurora-A(h) (Homo sapiens, UniProt O14965); conditions: atp_concentration=15, read-out: % of control remaining
T3 construct: gene AURKA
T3 sequence (O14965 1-403): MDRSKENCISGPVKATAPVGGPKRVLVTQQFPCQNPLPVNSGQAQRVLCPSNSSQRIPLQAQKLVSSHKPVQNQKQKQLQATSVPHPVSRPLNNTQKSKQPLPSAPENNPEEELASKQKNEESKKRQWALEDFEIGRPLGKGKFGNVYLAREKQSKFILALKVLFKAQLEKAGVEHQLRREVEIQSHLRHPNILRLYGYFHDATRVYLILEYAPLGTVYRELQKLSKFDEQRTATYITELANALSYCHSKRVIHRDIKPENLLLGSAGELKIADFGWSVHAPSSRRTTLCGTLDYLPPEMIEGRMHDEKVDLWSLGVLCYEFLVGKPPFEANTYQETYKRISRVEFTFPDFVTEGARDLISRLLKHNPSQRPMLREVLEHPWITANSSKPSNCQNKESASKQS
Text: as §1

CK1γ1(h) = target: T4, CK1γ1(h) (Homo sapiens, UniProt Q9HCP0); conditions: atp_concentration=15, read-out: % of control remaining
T4 construct: gene CSNK1G1
T4 sequence (Q9HCP0 whole entry): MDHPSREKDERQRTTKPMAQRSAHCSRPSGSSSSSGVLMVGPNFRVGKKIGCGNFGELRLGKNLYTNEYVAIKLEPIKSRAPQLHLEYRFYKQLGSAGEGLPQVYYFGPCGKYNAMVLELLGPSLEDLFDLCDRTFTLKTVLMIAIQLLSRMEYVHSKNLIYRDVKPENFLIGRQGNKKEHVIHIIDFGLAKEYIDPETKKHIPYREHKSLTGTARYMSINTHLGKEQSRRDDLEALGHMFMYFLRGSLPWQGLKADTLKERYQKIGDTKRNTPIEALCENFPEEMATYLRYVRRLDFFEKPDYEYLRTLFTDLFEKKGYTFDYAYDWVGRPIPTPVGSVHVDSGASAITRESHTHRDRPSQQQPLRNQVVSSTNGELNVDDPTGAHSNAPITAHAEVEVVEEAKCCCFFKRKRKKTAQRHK
Text: as §1

[1] = target: T5, PI3 Kinase (p110δ/p85α)(h) (Homo sapiens, UniProt O00329); conditions: atp_concentration=200, read-out: % of control remaining
T5 construct: gene PIK3CD
Text: as §1

Lyn(h) = Lyn(h) (Homo sapiens, UniProt P07948); conditions: atp_concentration=70, read-out: % of control remaining
Text: as §1

mTOR(h) = mTOR(h) (Homo sapiens, UniProt P42345); conditions: atp_concentration=70, read-out: % of control remaining
Text: as §1

ROCK-I(h) = target: T6, ROCK-I(h) (Homo sapiens, UniProt Q13464); conditions: atp_concentration=70, read-out: % of control remaining
T6 construct: gene ROCK1
T6 sequence (Q13464 whole entry): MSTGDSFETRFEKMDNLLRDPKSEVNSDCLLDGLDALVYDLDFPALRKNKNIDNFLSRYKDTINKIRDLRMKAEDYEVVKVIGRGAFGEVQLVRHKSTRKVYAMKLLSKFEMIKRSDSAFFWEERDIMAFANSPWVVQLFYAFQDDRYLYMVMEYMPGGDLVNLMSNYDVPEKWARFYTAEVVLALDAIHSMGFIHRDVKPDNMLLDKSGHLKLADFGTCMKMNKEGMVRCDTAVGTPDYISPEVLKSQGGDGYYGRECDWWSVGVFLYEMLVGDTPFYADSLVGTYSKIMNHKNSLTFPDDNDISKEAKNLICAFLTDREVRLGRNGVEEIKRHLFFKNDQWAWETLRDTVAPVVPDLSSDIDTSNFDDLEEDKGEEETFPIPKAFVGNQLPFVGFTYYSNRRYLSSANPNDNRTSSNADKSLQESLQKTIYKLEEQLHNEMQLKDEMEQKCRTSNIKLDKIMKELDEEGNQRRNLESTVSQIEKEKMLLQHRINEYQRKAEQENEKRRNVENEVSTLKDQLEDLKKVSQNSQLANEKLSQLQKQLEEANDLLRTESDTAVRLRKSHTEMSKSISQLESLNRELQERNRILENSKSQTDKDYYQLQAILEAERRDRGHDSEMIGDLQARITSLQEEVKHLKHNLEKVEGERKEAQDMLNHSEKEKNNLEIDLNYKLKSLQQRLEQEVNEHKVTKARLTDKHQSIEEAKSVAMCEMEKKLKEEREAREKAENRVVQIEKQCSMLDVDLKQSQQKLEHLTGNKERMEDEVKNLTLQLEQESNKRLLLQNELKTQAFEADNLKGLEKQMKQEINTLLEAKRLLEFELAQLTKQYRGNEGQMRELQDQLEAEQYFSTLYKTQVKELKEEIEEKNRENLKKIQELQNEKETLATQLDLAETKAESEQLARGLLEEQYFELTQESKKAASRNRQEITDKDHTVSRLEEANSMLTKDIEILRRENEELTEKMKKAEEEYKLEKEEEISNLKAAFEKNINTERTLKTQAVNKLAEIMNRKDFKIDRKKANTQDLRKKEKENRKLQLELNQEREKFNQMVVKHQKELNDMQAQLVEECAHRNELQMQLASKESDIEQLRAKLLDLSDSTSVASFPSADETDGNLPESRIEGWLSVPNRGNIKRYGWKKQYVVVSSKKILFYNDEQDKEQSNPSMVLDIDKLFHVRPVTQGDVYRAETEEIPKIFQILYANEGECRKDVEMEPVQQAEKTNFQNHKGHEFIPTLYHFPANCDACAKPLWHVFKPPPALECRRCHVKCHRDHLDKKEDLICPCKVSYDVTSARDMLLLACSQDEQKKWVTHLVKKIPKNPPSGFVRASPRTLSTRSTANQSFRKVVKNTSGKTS
Text: as §1

LOK(h) = target: T7, LOK(h) (Homo sapiens, UniProt O94804); conditions: atp_concentration=120, read-out: % of control remaining
T7 construct: gene STK10
T7 sequence (O94804 whole entry): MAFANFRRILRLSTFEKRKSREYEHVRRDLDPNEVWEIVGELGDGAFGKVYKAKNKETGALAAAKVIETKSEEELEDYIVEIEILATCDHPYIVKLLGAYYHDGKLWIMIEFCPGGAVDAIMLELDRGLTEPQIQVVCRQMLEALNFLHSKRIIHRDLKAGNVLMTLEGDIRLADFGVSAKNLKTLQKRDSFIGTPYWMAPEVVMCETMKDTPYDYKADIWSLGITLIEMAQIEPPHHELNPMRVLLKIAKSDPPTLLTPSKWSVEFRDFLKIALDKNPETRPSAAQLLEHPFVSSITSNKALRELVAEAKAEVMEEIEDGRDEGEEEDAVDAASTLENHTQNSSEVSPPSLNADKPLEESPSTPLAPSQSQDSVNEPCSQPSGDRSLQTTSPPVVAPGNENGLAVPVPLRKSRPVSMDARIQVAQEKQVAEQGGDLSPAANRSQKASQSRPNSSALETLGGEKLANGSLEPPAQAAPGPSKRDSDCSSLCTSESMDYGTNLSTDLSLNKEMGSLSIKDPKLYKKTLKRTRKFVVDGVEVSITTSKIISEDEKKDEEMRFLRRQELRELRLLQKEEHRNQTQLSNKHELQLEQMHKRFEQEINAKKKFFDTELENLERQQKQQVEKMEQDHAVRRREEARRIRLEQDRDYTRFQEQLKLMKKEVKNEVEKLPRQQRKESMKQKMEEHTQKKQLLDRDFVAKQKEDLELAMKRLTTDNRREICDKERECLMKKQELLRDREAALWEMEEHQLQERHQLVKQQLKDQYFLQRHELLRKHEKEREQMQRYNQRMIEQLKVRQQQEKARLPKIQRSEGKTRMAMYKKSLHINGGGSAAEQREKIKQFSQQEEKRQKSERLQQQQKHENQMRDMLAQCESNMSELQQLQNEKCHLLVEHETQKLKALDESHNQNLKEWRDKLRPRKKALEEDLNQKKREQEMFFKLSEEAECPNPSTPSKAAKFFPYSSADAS
Text: as §1

Rse(h) = target: T8, Rse(h) (Homo sapiens, UniProt Q06418); conditions: atp_concentration=45, read-out: % of control remaining
T8 construct: gene TYRO3
T8 sequence (Q06418 1-890): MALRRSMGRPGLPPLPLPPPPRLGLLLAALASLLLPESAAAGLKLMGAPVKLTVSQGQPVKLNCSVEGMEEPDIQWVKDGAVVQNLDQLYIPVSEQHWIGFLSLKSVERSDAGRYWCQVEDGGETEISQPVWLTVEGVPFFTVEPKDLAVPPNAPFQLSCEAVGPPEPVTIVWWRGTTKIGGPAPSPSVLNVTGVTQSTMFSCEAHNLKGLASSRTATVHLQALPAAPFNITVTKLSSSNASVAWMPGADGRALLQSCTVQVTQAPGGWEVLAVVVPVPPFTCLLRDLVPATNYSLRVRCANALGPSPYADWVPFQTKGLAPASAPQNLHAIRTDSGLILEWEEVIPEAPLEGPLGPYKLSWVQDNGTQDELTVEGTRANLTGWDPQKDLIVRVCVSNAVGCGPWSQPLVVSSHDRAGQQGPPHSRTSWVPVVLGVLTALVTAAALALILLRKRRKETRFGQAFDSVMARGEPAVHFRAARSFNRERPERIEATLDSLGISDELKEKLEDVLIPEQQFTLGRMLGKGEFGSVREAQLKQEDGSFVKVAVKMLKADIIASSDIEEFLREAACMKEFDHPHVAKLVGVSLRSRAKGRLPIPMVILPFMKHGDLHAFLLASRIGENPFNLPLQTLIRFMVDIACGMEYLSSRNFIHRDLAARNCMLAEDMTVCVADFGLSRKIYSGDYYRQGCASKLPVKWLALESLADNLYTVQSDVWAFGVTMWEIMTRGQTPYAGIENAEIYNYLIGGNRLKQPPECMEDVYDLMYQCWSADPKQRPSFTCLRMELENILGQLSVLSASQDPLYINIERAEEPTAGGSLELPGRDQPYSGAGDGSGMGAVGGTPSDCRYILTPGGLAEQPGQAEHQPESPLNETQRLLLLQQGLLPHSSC
Text: as §1

CC(C)[C@H](Nc1ncnc2[nH]ccc12)c1ccc2c(c1)S(=O)(=O)CCC2 [ASAP-0008674]
remaining activity at 10 µM (MSK2(h); batch_name=ASAP-0008674-002): 92%
remaining activity at 10 µM (IGF-1R(h); batch_name=ASAP-0008674-002): 100%
remaining activity at 10 µM (Aurora-A(h); batch_name=ASAP-0008674-002): 51%
remaining activity at 10 µM (CK1γ1(h); batch_name=ASAP-0008674-002): 97%
remaining activity at 10 µM ([1]; batch_name=ASAP-0008674-002): 99%
remaining activity at 10 µM (Lyn(h); batch_name=ASAP-0008674-002): 104%
remaining activity at 10 µM (mTOR(h); batch_name=ASAP-0008674-002): 99%
remaining activity at 10 µM (ROCK-I(h); batch_name=ASAP-0008674-002): 115%
remaining activity at 10 µM (LOK(h); batch_name=ASAP-0008674-002): 102%
remaining activity at 10 µM (Rse(h); batch_name=ASAP-0008674-002): 86%

Cc1nn(C)cc1-c1cc2c(NC(c3ccc4c(c3)S(=O)(=O)CCC4)C(C)C)ncnc2[nH]1 (centres unmarked) [ASAP-0011446]
remaining activity at 10 µM (MSK2(h); batch_name=ASAP-0011446-002): 105%
remaining activity at 10 µM (IGF-1R(h); batch_name=ASAP-0011446-002): 97%
remaining activity at 10 µM (Aurora-A(h); batch_name=ASAP-0011446-002): 55%
remaining activity at 10 µM (CK1γ1(h); batch_name=ASAP-0011446-002): 99%
remaining activity at 10 µM ([1]; batch_name=ASAP-0011446-002): 101%
remaining activity at 10 µM (Lyn(h); batch_name=ASAP-0011446-002): 48%
remaining activity at 10 µM (mTOR(h); batch_name=ASAP-0011446-002): 96%
remaining activity at 10 µM (ROCK-I(h); batch_name=ASAP-0011446-002): 103%
remaining activity at 10 µM (LOK(h); batch_name=ASAP-0011446-002): 93%
remaining activity at 10 µM (Rse(h); batch_name=ASAP-0011446-002): 96%

CC(C)[C@@H](Nc1ncnc2[nH]c(-c3cnn(C)c3C#N)cc12)c1ccc2c(n1)OCCO2 [ASAP-0008418]
remaining activity at 10 µM (MSK2(h); batch_name=ASAP-0008418-001): 103%
remaining activity at 10 µM (IGF-1R(h); batch_name=ASAP-0008418-001): 108%
remaining activity at 10 µM (Aurora-A(h); batch_name=ASAP-0008418-001): 44%
remaining activity at 10 µM (CK1γ1(h); batch_name=ASAP-0008418-001): 87%
remaining activity at 10 µM ([1]; batch_name=ASAP-0008418-001): 55%
remaining activity at 10 µM (Lyn(h); batch_name=ASAP-0008418-001): 61%
remaining activity at 10 µM (mTOR(h); batch_name=ASAP-0008418-001): 83%
remaining activity at 10 µM (ROCK-I(h); batch_name=ASAP-0008418-001): 93%
remaining activity at 10 µM (LOK(h); batch_name=ASAP-0008418-001): 47%
remaining activity at 10 µM (Rse(h); batch_name=ASAP-0008418-001): 116%

CC(C)C(Nc1ncnc2[nH]ccc12)c1ccc2c(c1)S(=O)(=O)CCC2 (centres unmarked) [ASAP-0008327]
remaining activity at 10 µM (MSK2(h); batch_name=ASAP-0008327-001): 99%
remaining activity at 10 µM (IGF-1R(h); batch_name=ASAP-0008327-001): 88%
remaining activity at 10 µM (Aurora-A(h); batch_name=ASAP-0008327-001): 57%
remaining activity at 10 µM (CK1γ1(h); batch_name=ASAP-0008327-001): 102%
remaining activity at 10 µM ([1]; batch_name=ASAP-0008327-001): 101%
remaining activity at 10 µM (Lyn(h); batch_name=ASAP-0008327-001): 112%
remaining activity at 10 µM (mTOR(h); batch_name=ASAP-0008327-001): 102%
remaining activity at 10 µM (ROCK-I(h); batch_name=ASAP-0008327-001): 110%
remaining activity at 10 µM (LOK(h); batch_name=ASAP-0008327-001): 104%
remaining activity at 10 µM (Rse(h); batch_name=ASAP-0008327-001): 115%

CC(C)[C@H](Nc1ncnc2[nH]c(-c3cnn(C)c3C#N)cc12)c1ccc2c(n1)OCCO2 [ASAP-0010715]
remaining activity at 10 µM (MSK2(h); batch_name=ASAP-0010715-002): 114%
remaining activity at 10 µM (IGF-1R(h); batch_name=ASAP-0010715-002): 85%
remaining activity at 10 µM (Aurora-A(h); batch_name=ASAP-0010715-002): 53%
remaining activity at 10 µM (CK1γ1(h); batch_name=ASAP-0010715-002): 100%
remaining activity at 10 µM ([1]; batch_name=ASAP-0010715-002): 66%
remaining activity at 10 µM (Lyn(h); batch_name=ASAP-0010715-002): 79%
remaining activity at 10 µM (mTOR(h); batch_name=ASAP-0010715-002): 104%
remaining activity at 10 µM (ROCK-I(h); batch_name=ASAP-0010715-002): 115%
remaining activity at 10 µM (LOK(h); batch_name=ASAP-0010715-002): 45%
remaining activity at 10 µM (Rse(h); batch_name=ASAP-0010715-002): 105%

CC(C)[C@@H](Nc1ncnc2[nH]c(-c3cnn(C)c3C#N)cc12)c1ccc2c(n1)OCCO2 [ASAP-0010716]
remaining activity at 10 µM (MSK2(h); batch_name=ASAP-0010716-002): 122%
remaining activity at 10 µM (IGF-1R(h); batch_name=ASAP-0010716-002): 94%
remaining activity at 10 µM (Aurora-A(h); batch_name=ASAP-0010716-002): 58%
remaining activity at 10 µM (CK1γ1(h); batch_name=ASAP-0010716-002): 99%
remaining activity at 10 µM ([1]; batch_name=ASAP-0010716-002): 61%
remaining activity at 10 µM (Lyn(h); batch_name=ASAP-0010716-002): 96%
remaining activity at 10 µM (mTOR(h); batch_name=ASAP-0010716-002): 102%
remaining activity at 10 µM (ROCK-I(h); batch_name=ASAP-0010716-002): 107%
remaining activity at 10 µM (LOK(h); batch_name=ASAP-0010716-002): 106%
remaining activity at 10 µM (Rse(h); batch_name=ASAP-0010716-002): 107%

CC(C)C(Nc1ncnc2[nH]c(C(=O)NC3CCN(C)C3)cc12)c1ccc2c(c1)S(=O)(=O)CCC2 (centres unmarked) [ASAP-0011198]
remaining activity at 10 µM (MSK2(h); batch_name=ASAP-0011198-002): 93%
remaining activity at 10 µM (IGF-1R(h); batch_name=ASAP-0011198-002): 104%
remaining activity at 10 µM (Aurora-A(h); batch_name=ASAP-0011198-002): 97%
remaining activity at 10 µM (CK1γ1(h); batch_name=ASAP-0011198-002): 100%
remaining activity at 10 µM ([1]; batch_name=ASAP-0011198-002): 99%
remaining activity at 10 µM (Lyn(h); batch_name=ASAP-0011198-002): 107%
remaining activity at 10 µM (mTOR(h); batch_name=ASAP-0011198-002): 103%
remaining activity at 10 µM (ROCK-I(h); batch_name=ASAP-0011198-002): 98%
remaining activity at 10 µM (LOK(h); batch_name=ASAP-0011198-002): 99%
remaining activity at 10 µM (Rse(h); batch_name=ASAP-0011198-002): 107%

COc1ccc([C@H](Cc2nnn[nH]2)NC(=O)c2ncnc3[nH]ccc23)cc1 [ASAP-0015381]
remaining activity at 10 µM (MSK2(h); batch_name=ASAP-0015381-001): 103%
remaining activity at 10 µM (IGF-1R(h); batch_name=ASAP-0015381-001): 103%
remaining activity at 10 µM (Aurora-A(h); batch_name=ASAP-0015381-001): 84%
remaining activity at 10 µM (CK1γ1(h); batch_name=ASAP-0015381-001): 94%
remaining activity at 10 µM ([1]; batch_name=ASAP-0015381-001): 97%
remaining activity at 10 µM (Lyn(h); batch_name=ASAP-0015381-001): 108%
remaining activity at 10 µM (mTOR(h); batch_name=ASAP-0015381-001): 97%
remaining activity at 10 µM (ROCK-I(h); batch_name=ASAP-0015381-001): 103%
remaining activity at 10 µM (LOK(h); batch_name=ASAP-0015381-001): 102%
remaining activity at 10 µM (Rse(h); batch_name=ASAP-0015381-001): 100%
